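The compound was tested at five concentrations on cells cultured in 96-well plates, with a 48-hour exposure period. GI50: concentration for 50% inhibition of growth.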 Active and inactive are the calls of the source. Rule as the data show it: active = GI50 up to about 1.1 µM and inactive = higher.
What was measured:
Test in all cases: inhibition of tumour cell growth, NCI panel, 48 h
[1] = system: A498
[2] = system: ACHN
[3] = system: HCT-15
[4] = system: HOP-62
[5] = system: K562
[6] = system: KM12
[7] = system: NCI-H23
[8] = system: NCI-H460
[9] = system: OVCAR-4
[10] = system: OVCAR-5
[11] = system: SF-268
[12] = system: SF-295
[13] = system: SK-MEL-28
[14] = system: SNB-19
[15] = system: SNB-75
[16] = system: U-251
[17] = system: UO-31
[18] = system: MDA-MB-231
[19] = system: MDA-N
[20] = system: NCI/ADR-RES

Row | Compound | GI50 [1] | GI50 [2] | GI50 [3] [µM] | GI50 [4] | GI50 [5] | GI50 [6] | GI50 [7] | GI50 [8] | GI50 [9] | GI50 [10] | GI50 [11] | GI50 [12] | GI50 [13] | GI50 [14] | GI50 [15] | GI50 [16] | GI50 [17] | GI50 [18] | GI50 [19] | GI50 [20]
1 | COc1cc(C2C(Cl)C(=O)N2NC(=O)c2ccc(N)cc2)cc(Br)c1O (configuration not stated) | 37.2 µM (inactive) | 19.2 µM (inactive) | 15 | 15.1 µM (inactive) | 10.2 µM (inactive) | 16 µM (inactive) | 16.4 µM (inactive) | 16.6 µM (inactive) | 14.8 µM (inactive) | 19.4 µM (inactive) | 4.19 µM (inactive) | 14.6 µM (inactive) | 16.2 µM (inactive) | 11.7 µM (inactive) | 17.2 µM (inactive) | 3.31 µM (inactive) | 17.8 µM (inactive) |  |  | 
2 | CC(=O)Nc1ccc(-c2nnc(SCC(=O)Nc3ccccc3Cl)o2)cc1 | > 100 µM (inactive) | > 100 µM (inactive) | > 100 | > 100 µM (inactive) | > 100 µM (inactive) | > 100 µM (inactive) | > 100 µM (inactive) | > 100 µM (inactive) | > 100 µM (inactive) | > 100 µM (inactive) | > 100 µM (inactive) | > 100 µM (inactive) | > 100 µM (inactive) | > 100 µM (inactive) | > 100 µM (inactive) | > 100 µM (inactive) | > 100 µM (inactive) |  |  | 
3 | CC(=O)O[C@H]1CC[C@@]2(C)C(CC[C@]3(C)C2CC[C@]2(C)Oc4c(C)cc(O)cc4C[C@@H]23)C1(C)C (some centres not stated) | 12.7 µM (inactive) | 5.46 µM (inactive) | 3.66 | 10.8 µM (inactive) | 3.96 µM (inactive) | 6.71 µM (inactive) | 6.56 µM (inactive) | 4.11 µM (inactive) | 7.64 µM (inactive) | 10.9 µM (inactive) | 4.61 µM (inactive) | 2.17 µM (inactive) | 8.59 µM (inactive) | 4.24 µM (inactive) | 2.96 µM (inactive) | 2.71 µM (inactive) | 8.75 µM (inactive) |  |  | 
4 | CCOC(=O)C1S/C(=N\c2ccc(OC)c(OC)c2)N=C1C (configuration not stated) | 52.7 µM (inactive) | 33.6 µM (inactive) | 28.6 | 92 µM (inactive) | 36.6 µM (inactive) | 31.3 µM (inactive) | 27.7 µM (inactive) | 43.5 µM (inactive) | 40.2 µM (inactive) | 40.2 µM (inactive) | 33.6 µM (inactive) | 36.5 µM (inactive) | 30.6 µM (inactive) | 53.5 µM (inactive) | 24.5 µM (inactive) | 36.2 µM (inactive) | 34.6 µM (inactive) |  |  | 
5 | O=C(O)/C(=C/c1ccccc1[N+](=O)[O-])c1cccs1 | > 100 µM (inactive) | > 100 µM (inactive) | > 100 | > 100 µM (inactive) | > 100 µM (inactive) | > 100 µM (inactive) | > 100 µM (inactive) | > 100 µM (inactive) | > 100 µM (inactive) | > 100 µM (inactive) | > 100 µM (inactive) | > 100 µM (inactive) | > 100 µM (inactive) | > 100 µM (inactive) | > 100 µM (inactive) | > 100 µM (inactive) | > 100 µM (inactive) |  |  | 
6 | O=C(Nn1cnn2c(=O)c3ccccc3nc2c1=O)c1ccccc1 | > 100 µM (inactive) | > 100 µM (inactive) | > 100 | > 100 µM (inactive) | > 100 µM (inactive) | > 100 µM (inactive) | > 100 µM (inactive) | > 100 µM (inactive) | > 100 µM (inactive) | > 100 µM (inactive) | > 100 µM (inactive) | > 100 µM (inactive) | > 100 µM (inactive) | > 100 µM (inactive) | > 100 µM (inactive) | > 100 µM (inactive) | > 100 µM (inactive) | > 100 µM (inactive) | > 100 µM (inactive) | 
7 | CN1CCN(Cc2cc3c(nn2)-c2ccccc2C3=O)CC1 |  | 26.2 µM (inactive) | 26.2 |  | 47.1 µM (inactive) | 59.2 µM (inactive) | 35 µM (inactive) | 34.4 µM (inactive) |  | > 100 µM (inactive) | > 100 µM (inactive) | > 100 µM (inactive) |  | 43.5 µM (inactive) | > 100 µM (inactive) | 44.3 µM (inactive) | 32.7 µM (inactive) | > 10 µM (inactive) | 24.4 µM (inactive) | 50.1 µM (inactive)
8 | C=C1C(=O)O[C@H](c2ccoc2)C[C@@H]1[C@@]1(C)CCCC2(C)C(=O)OCC21 (some centres not stated) | > 100 µM (inactive) | > 100 µM (inactive) | > 100 | > 100 µM (inactive) | > 100 µM (inactive) | > 100 µM (inactive) | > 100 µM (inactive) | > 100 µM (inactive) | > 100 µM (inactive) | > 100 µM (inactive) | > 100 µM (inactive) | > 100 µM (inactive) | > 100 µM (inactive) | > 100 µM (inactive) | > 100 µM (inactive) | > 100 µM (inactive) | > 100 µM (inactive) |  |  | 

From ChEMBL document CHEMBL1201862, “PubChem BioAssay data set” (2004)
